US4742053A, “3-Isoquinoliniomethyl cephalosporin derivatives” (Banyu Pharmaceutical Co., Ltd., priority 1984, dated 1988)
≈ marks a conversion by molar mass, not a printed value. Read-outs that look alike come from different tables or passages of the source.

Tests used:
Assay in all cases: MIC by agar plate dilution method
Type in all cases: cell-based
A. calcoaceticus No. 14 = details: Acinetobacter calcoaceticus, NO.14, A. calcoaceticus No. 14; 10^6 CFU/ml; read-out: Minimum Inhibitory Concentration
Method: (§1) The minimum inhibitory concentrations (MIC: μg/ml) of the compounds of the present invention against various microorganisms were measured by an agar plate dilution method (inoculum size: 10^6 CFU/ml) by using Sensitivity Disk Agar (Nissui) in comparison with Cefotaxime and Ceftazidime as comparative compounds.
(§2) Minimum Inhibitory Concentration (μg/ml; 10^6 CFU/ml)

C. freundii No. 7 = details: Citrobacter freundii; C. freundii No. 7; 10^6 CFU/ml; read-out: Minimum Inhibitory Concentration
Method: as §1, §2

E. cloaceae Nek 39 = details: E. cloaceae Nek 39; 10^6 CFU/ml; read-out: Minimum Inhibitory Concentration
Method: as §1, §2

E. coli C/Rms149 = details: Escherichia coli, read-out: Minimum Inhibitory Concentration, E. coli C/Rms149; 10^6 CFU/ml
Method: as §1, §2

E. coli CSH2 = details: Escherichia coli, 10^6 CFU/ml, read-out: Minimum Inhibitory Concentration
Method: as §1, §2

E. coli CSH = details: Escherichia coli, 10^6 CFU/ml, read-out: Minimum Inhibitory Concentration
Method: as §1, §2

E. coli ML1410/Rte16 = details: Escherichia coli, ML1410/RTE16, read-out: Minimum Inhibitory Concentration, E. coli ML1410/Rte16; 10^6 CFU/ml
Method: as §1, §2

E. coli NIHJJC-2 = details: Escherichia coli, NIHJJC2, E. coli NIHJJC-2; 10^6 CFU/ml; read-out: Minimum Inhibitory Concentration
Method: as §1, §2

E. coli W3630/Rms212 = details: Escherichia coli, W3630/RMS212, read-out: Minimum Inhibitory Concentration, E. coli W3630/Rms212; 10^6 CFU/ml
Method: as §1, §2

E. coli W3630/Rms213 = details: Escherichia coli, W3630/RMS213, read-out: Minimum Inhibitory Concentration, E. coli W3630/Rms213; 10^6 CFU/ml
Method: as §1, §2

K. pneumoniae No. 42 = details: Klebsiella pneumoniae
Method: as §1, §2

P. aeruginosa AK109 = details: Pseudomonas aeruginosa, AK109, P. aeruginosa AK109; 10^6 CFU/ml; read-out: Minimum Inhibitory Concentration
Method: as §1, §2

P. aeruginosa AKR17 = details: Pseudomonas aeruginosa, AKR17, P. aeruginosa AKR17; 10^6 CFU/ml; read-out: Minimum Inhibitory Concentration
Method: as §1, §2

P. cepacia 23 = details: Burkholderia cepacia; P. cepacia 23; 10^6 CFU/ml; read-out: Minimum Inhibitory Concentration
Method: as §1, §2

P. maltophilia IID 1275 = details: Stenotrophomonas maltophilia, IID1275; P. maltophilia IID 1275; 10^6 CFU/ml; read-out: Minimum Inhibitory Concentration
Method: as §1, §2

P. mirabilis JY10 = details: Proteus mirabilis
Method: as §1, §2

P. vulgaris No. 33 = details: Proteus vulgaris
Method: as §1, §2

P. vulgaris OB1043 = details: Proteus vulgaris
Method: as §1, §2

S. aureus JS-1 = details: Staphylococcus aureus, JS1; S. aureus JS-1; 10^6 CFU/ml; read-out: Minimum Inhibitory Concentration
Method: as §1, §2

S. aureus NIHJJC-1 = details: Staphylococcus aureus, NIHJJC1, S. aureus NIHJJC-1; 10^6 CFU/ml; read-out: Minimum Inhibitory Concentration
Method: as §1, §2

S. marcescens No. 16-2 = details: Serratia marcescens, NO.162; S. marcescens No. 16-2; 10^6 CFU/ml; read-out: Minimum Inhibitory Concentration
Method: as §1, §2

[1] = K. pneumoniae No. 42, 10^6 CFU/ml, read-out: Minimum Inhibitory Concentration
[2] = P. mirabilis JY10, 10^6 CFU/ml, read-out: Minimum Inhibitory Concentration
[3] = P. vulgaris No. 33, 10^6 CFU/ml, read-out: Minimum Inhibitory Concentration
[4] = OB1043, P. vulgaris OB1043, 10^6 CFU/ml, read-out: Minimum Inhibitory Concentration
[5] = NO.33, read-out: Minimum Inhibitory Concentration

| Structure (SMILES) | MIC (A. calcoaceticus No. 14) [mg/L] | MIC (C. freundii No. 7) [mg/L] | MIC (E. cloaceae Nek 39) [mg/L] | MIC (E. coli C/Rms149) [mg/L] | MIC (E. coli CSH2) [mg/L] | MIC (E. coli CSH) [mg/L] | MIC (E. coli ML1410/Rte16) [mg/L] | MIC (E. coli NIHJJC-2) [mg/L] | MIC (E. coli W3630/Rms212) [mg/L] | MIC (E. coli W3630/Rms213) [mg/L] | MIC (K. pneumoniae No. 42; [1]) [mg/L] | MIC (P. aeruginosa AK109) [mg/L] | MIC (P. aeruginosa AKR17) [mg/L] | MIC (P. cepacia 23) [mg/L] | MIC (P. maltophilia IID 1275) [mg/L] | MIC (P. mirabilis JY10; [2]) [mg/L] | MIC (S. aureus JS-1) [mg/L] | MIC (S. aureus NIHJJC-1) [mg/L] | MIC (S. marcescens No. 16-2) [mg/L] | MIC (P. vulgaris OB1043; [4]) [mg/L] | further results |
| --- | --- | --- | --- | --- | --- | --- | --- | --- | --- | --- | --- | --- | --- | --- | --- | --- | --- | --- | --- | --- | --- |
| CO/N=C(\C(=O)NC1C(=O)N2C(C(=O)[O-])=C(C[N+]3(C)CCc4cc(O)ccc4C3)CSC12)c1csc(N)n1 (stereo not drawn) [Ex. 10, 7-[(Z)-2-(2-aminothiazol-4-yl)-2-methoxyiminoacetamido]-3-(6-hydroxy-2-methyl-1,2,3,4-tetrahydro-2-isoquinolinium)methyl-3-cephem-4-carboxylate] | 25 (≈ 44.8 µM) | 1.56 (≈ 2.79 µM) | 0.78 (≈ 1.4 µM) | 0.1 (≈ 0.179 µM) | ≤ 0.05 | 0.78 (≈ 1.4 µM) | 0.1 (≈ 0.179 µM) | 0.1 (≈ 0.179 µM) | 0.2 (≈ 0.358 µM) | 1.56 (≈ 2.79 µM) | 0.2 (≈ 0.358 µM) | 1.56 (≈ 2.79 µM) | > 25 | 6.25 (≈ 11.2 µM) | > 25 | 0.78 (≈ 1.4 µM) | 6.25 (≈ 11.2 µM) | 0.39 (≈ 0.698 µM) | 6.25 (≈ 11.2 µM) | – | MIC (P. vulgaris No. 33; [3]): 0.1 mg/L (≈ 0.179 µM); MIC (P. vulgaris OB1043; OB1043, read-out: Minimum Inhibitory Concentration): 0.39 mg/L (≈ 0.698 µM) |
| CO/N=C(\C(=O)NC1C(=O)N2C(C(=O)[O-])=C(C[N+]3(C)CCc4cc(OC(C)=O)ccc4C3)CSC12)c1csc(N)n1 (stereo not drawn) [Ex. 9, 7-[(Z)-2-(2-aminothiazol-4-yl)-2-methoxyiminoacetamido]-3-(6-acetoxy-2-methyl-1,2,3,4-tetrahydro-2-isoquinolinium)methyl-3-cephem-4-carboxylate] | > 25 | 6.25 (≈ 10.4 µM) | 1.56 (≈ 2.6 µM) | 0.2 (≈ 0.333 µM) | 0.1 (≈ 0.166 µM) | 1.56 (≈ 2.6 µM) | 0.2 (≈ 0.333 µM) | 0.2 (≈ 0.333 µM) | 0.2 (≈ 0.333 µM) | 3.12 (≈ 5.19 µM) | 0.78 (≈ 1.3 µM) | 3.12 (≈ 5.19 µM) | 25 (≈ 41.6 µM) | 12.5 (≈ 20.8 µM) | > 25 | 1.56 (≈ 2.6 µM) | 12.5 (≈ 20.8 µM) | 0.39 (≈ 0.649 µM) | 12.5 (≈ 20.8 µM) | 0.78 (≈ 1.3 µM) | MIC (P. vulgaris No. 33; [3]): 0.39 mg/L (≈ 0.649 µM) |
| C[N+]1(CC2=C(C(=O)[O-])N3C(=O)C(NC(=O)C(=NOC4(C(=O)O)CCCC4)c4csc(N)n4)C3SC2)CCc2cc(O)c(O)cc2C1 (stereo not drawn) [Ex. 18-G, 7-[(Z)-2-(2-aminothiazol-4-yl)-2-(1-carboxy-1 cyclopentyloxyimino)acetamido]-3-(6,7-dihydroxy-2-methyl-1,2,3,4-tetrahydro-2-isoquinolinium)methyl-3-cephem-4-carboxylate] | 3.12 (≈ 4.64 µM) | 0.78 (≈ 1.16 µM) | 0.1 (≈ 0.149 µM) | 0.78 (≈ 1.16 µM) | 0.78 (≈ 1.16 µM) | 0.78 (≈ 1.16 µM) | 0.2 (≈ 0.297 µM) | 0.39 (≈ 0.58 µM) | 0.39 (≈ 0.58 µM) | 0.78 (≈ 1.16 µM) | 1.56 (≈ 2.32 µM) | 0.2 (≈ 0.297 µM) | 0.78 (≈ 1.16 µM) | 0.2 (≈ 0.297 µM) | 100 (≈ 149 µM) | 6.25 (≈ 9.29 µM) | > 100 | 25 (≈ 37.2 µM) | 12.5 (≈ 18.6 µM) | 1.56 (≈ 2.32 µM) | MIC (P. vulgaris No. 33; [3]): 6.25 mg/L (≈ 9.29 µM) |
| CON=C(C(=O)NC1C(=O)N2C(C(=O)[O-])=C(C[N+]3(C)CCc4c(ccc(O)c4O)C3)CSC12)c1csc(N)n1 (stereo not drawn) [Ex. 11, 7-[(Z)-2-(2-aminothiazol-4-yl)-2-methoxyiminoacetamido]-3-(5,6-dihydroxy-2-methyl-1,2,3,4-tetrahydro-2-isoquinolinium)methyl-3-cephem-4-carboxylate] | 0.39 (≈ 0.679 µM) | 12.5 (≈ 21.8 µM) | 0.025 (≈ 0.0435 µM) | 0.1 (≈ 0.174 µM) | 0.39 (≈ 0.679 µM) | 0.78 (≈ 1.36 µM) | 0.1 (≈ 0.174 µM) | 0.05 (≈ 0.087 µM) | 0.025 (≈ 0.0435 µM) | 0.78 (≈ 1.36 µM) | – | 0.2 (≈ 0.348 µM) | 6.25 (≈ 10.9 µM) | 0.2 (≈ 0.348 µM) | > 50 | – | 25 (≈ 43.5 µM) | 6.25 (≈ 10.9 µM) | 12.5 (≈ 21.8 µM) | 1.56 (≈ 2.71 µM) | MIC (K. pneumoniae No. 42; NO.42, read-out: Minimum Inhibitory Concentration): 0.39 mg/L (≈ 0.679 µM); MIC (P. mirabilis JY10; JY10, read-out: Minimum Inhibitory Concentration): 0.39 mg/L (≈ 0.679 µM); MIC (P. vulgaris No. 33; [3]): 0.2 mg/L (≈ 0.348 µM) |
| C[N+]1(CC2=C(C(=O)[O-])N3C(=O)C(NC(=O)C(=NOCC(=O)O)c4csc(N)n4)C3SC2)CCc2cc(O)c(O)cc2C1 (stereo not drawn) [Ex. 14-F, 7-[(Z)-2-(2-aminothiazol-4-yl)-2-carboxymethoxyiminoacetamido]-3-(6,7-dihydroxy-2-methyl-1,2,3,4-tetrahydro-2-isoquinolinium)methyl-3-cephem-4-carboxylate] | 0.1 (≈ 0.162 µM) | 0.78 (≈ 1.26 µM) | 0.006 (≈ 0.0097 µM) | 0.025 (≈ 0.0404 µM) | 0.025 (≈ 0.0404 µM) | 0.05 (≈ 0.0808 µM) | 0.025 (≈ 0.0404 µM) | 0.025 (≈ 0.0404 µM) | 0.006 (≈ 0.0097 µM) | 0.1 (≈ 0.162 µM) | 0.05 (≈ 0.0808 µM) | 0.05 (≈ 0.0808 µM) | 0.1 (≈ 0.162 µM) | 0.05 (≈ 0.0808 µM) | 3.12 (≈ 5.04 µM) | 0.2 (≈ 0.323 µM) | 50 (≈ 80.8 µM) | 12.5 (≈ 20.2 µM) | 0.39 (≈ 0.63 µM) | 0.1 (≈ 0.162 µM) | MIC (P. vulgaris No. 33; [5]): 0.05 mg/L (≈ 0.0808 µM) |
| C[N+]1(CC2=C(C(=O)[O-])N3C(=O)C(NC(=O)C(=NOC4(C(=O)O)CC4)c4csc(N)n4)C3SC2)CCc2cc(O)c(O)cc2C1 (stereo not drawn) [Ex. 17-E, 7-[(Z)-2-(2-aminothiazol-4-yl)-2-(1-carboxy-1-cyclopropoxyimino)acetamido]-3-(6,7-dihydroxy-2-methyl-1,2,3,4-tetrahydro-2-isoquinolinium)methyl-3-cephem-4-carboxylate] | 0.1 (≈ 0.155 µM) | 1.56 (≈ 2.42 µM) | ≤ 0.05 | ≤ 0.05 | ≤ 0.05 | ≤ 0.05 | ≤ 0.05 | ≤ 0.05 | ≤ 0.05 | ≤ 0.05 | ≤ 0.05 | ≤ 0.05 | 0.1 (≈ 0.155 µM) | ≤ 0.05 | 1.56 (≈ 2.42 µM) | ≤ 0.05 | > 25 | 12.5 (≈ 19.4 µM) | 0.39 (≈ 0.605 µM) | ≤ 0.05 | MIC (P. vulgaris No. 33; [5]): ≤ 0.05 mg/L |
| CON=C(C(=O)NC1C(=O)N2C(C(=O)[O-])=C(C[N+]3(C)CCc4cc(O)c(O)c(O)c4C3)CSC12)c1csc(N)n1 (stereo not drawn) [Ex. 12, 7-[(Z)-2-(2-aminothiazol-4-yl)-2-methoxyiminoacetamido]-3-(2-methyl-1,2,3,4-tetrahydro-6,7,8-trihydroxy-2-isoquinolinium)methyl-3-cephem-4-carboxylate] | 25 (≈ 42.3 µM) | 12.5 (≈ 21.2 µM) | 1.56 (≈ 2.64 µM) | 0.78 (≈ 1.32 µM) | 1.56 (≈ 2.64 µM) | 3.12 (≈ 5.28 µM) | 1.56 (≈ 2.64 µM) | 0.78 (≈ 1.32 µM) | 0.78 (≈ 1.32 µM) | 3.12 (≈ 5.28 µM) | 1.56 (≈ 2.64 µM) | 25 (≈ 42.3 µM) | 50 (≈ 84.7 µM) | 1.56 (≈ 2.64 µM) | 100 (≈ 169 µM) | 0.78 (≈ 1.32 µM) | 50 (≈ 84.7 µM) | 25 (≈ 42.3 µM) | 100 (≈ 169 µM) | 3.12 (≈ 5.28 µM) | MIC (P. vulgaris No. 33; [3]): 1.56 mg/L (≈ 2.64 µM) |
